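Briefly, cells in 96-well plates were exposed to five compound concentrations for 48 h, and endpoints were estimated by linear interpolation. GI50 marks 50% less growth. At the TGI there is no net growth.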
What was measured:
Test in all cases: NCI anticancer screen, dose series, 48 h
786-0 renal = tested on: 786-0 renal
A498 renal = tested on: A498 renal
A549 NSCLC = tested on: A549 NSCLC
ACHN renal = tested on: ACHN renal
BT-549 breast = tested on: BT-549 breast
CAKI-1 renal = tested on: CAKI-1 renal
CCRF-CEM leukemia = tested on: CCRF-CEM leukemia
COLO 205 colon = tested on: COLO 205 colon
DU-145 prostate = tested on: DU-145 prostate
EKVX NSCLC = tested on: EKVX NSCLC
HCC-2998 colon = tested on: HCC-2998 colon
HCT-116 colon = tested on: HCT-116 colon
HCT-15 colon = tested on: HCT-15 colon
HL-60(TB) leukemia = tested on: HL-60(TB) leukemia
HOP-62 NSCLC = tested on: HOP-62 NSCLC
HOP-92 NSCLC = tested on: HOP-92 NSCLC
HS 578T breast = tested on: HS 578T breast
HT29 colon = tested on: HT29 colon
IGROV1 ovarian = tested on: IGROV1 ovarian
K-562 leukemia = tested on: K-562 leukemia
KM12 colon = tested on: KM12 colon
LOX IMVI melanoma = tested on: LOX IMVI melanoma
M14 melanoma = tested on: M14 melanoma
MALME-3M melanoma = tested on: MALME-3M melanoma
MCF7 breast = tested on: MCF7 breast
MDA-MB-231 breast = tested on: MDA-MB-231 breast
MDA-MB-435 = tested on: MDA-MB-435
MOLT-4 leukemia = tested on: MOLT-4 leukemia
NCI-H226 lung = tested on: NCI-H226 lung
NCI-H23 lung = tested on: NCI-H23 lung
NCI-H460 lung = tested on: NCI-H460 lung
NCI-H522 lung = tested on: NCI-H522 lung
NCI/ADR-RES ovarian = tested on: NCI/ADR-RES ovarian
OVCAR-3 ovarian = tested on: OVCAR-3 ovarian
OVCAR-4 ovarian = tested on: OVCAR-4 ovarian
OVCAR-5 ovarian = tested on: OVCAR-5 ovarian
OVCAR-8 ovarian = tested on: OVCAR-8 ovarian
PC-3 prostate = tested on: PC-3 prostate
RPMI-8226 leukemia = tested on: RPMI-8226 leukemia
RXF 393 renal = tested on: RXF 393 renal
SF-268 CNS = tested on: SF-268 CNS
SF-295 CNS = tested on: SF-295 CNS
SF-539 CNS = tested on: SF-539 CNS
SK-MEL-2 melanoma = tested on: SK-MEL-2 melanoma
SK-MEL-28 melanoma = tested on: SK-MEL-28 melanoma
SK-MEL-5 melanoma = tested on: SK-MEL-5 melanoma
SK-OV-3 ovarian = tested on: SK-OV-3 ovarian
SN12C renal = tested on: SN12C renal
SNB-19 CNS = tested on: SNB-19 CNS
SNB-75 CNS = tested on: SNB-75 CNS
SR leukemia = tested on: SR leukemia
SW-620 colon = tested on: SW-620 colon
T-47D breast = tested on: T-47D breast
TK-10 renal = tested on: TK-10 renal
U251 CNS = tested on: U251 CNS
UACC-257 melanoma = tested on: UACC-257 melanoma
UACC-62 melanoma = tested on: UACC-62 melanoma
UO-31 renal = tested on: UO-31 renal

For `COC(=O)c1ccc2[nH]c(O)c(C(=Nc3ccc(N(C)C(=O)CN4CCN(C)CC4)cc3)c3ccc(OC)cc3)c2c1`, the GI50 (786-0 renal) was 730 nM, the TGI (786-0 renal) was 2130 nM and the GI50 (A498 renal) was 1520 nM. For the same compound, the TGI (A498 renal) was 3.11 µM, the GI50 (A549 NSCLC) was 2010 nM and the TGI (A549 NSCLC) was 12.1 µM. For the same compound, the GI50 (ACHN renal) was 1710 nM, the TGI (ACHN renal) was 10.3 µM and the GI50 (BT-549 breast) was 1150 nM. For the same compound, the TGI (BT-549 breast) was 2650 nM, the GI50 (CAKI-1 renal) was 383 nM and the TGI (CAKI-1 renal) was 11.1 µM. For the same compound, the GI50 (CCRF-CEM leukemia) was 414 nM, the TGI (CCRF-CEM leukemia) was 11.1 µM and the GI50 (COLO 205 colon) was 664 nM. The TGI (COLO 205 colon) was 2340 nM, the GI50 (DU-145 prostate) was 2370 nM and the TGI (DU-145 prostate) was 11.3 µM. It also gave a GI50 (EKVX NSCLC) of 2380 nM, a TGI (EKVX NSCLC) of 12.4 µM and a GI50 (HCC-2998 colon) of 2120 nM. It also gave a TGI (HCC-2998 colon) of 10.6 µM, a GI50 (HCT-116 colon) of 227 nM and a TGI (HCT-116 colon) of 10.1 µM. The GI50 (HCT-15 colon) was 1810 nM, the TGI (HCT-15 colon) was 6.61 µM and the GI50 (HL-60(TB) leukemia) was 712 nM. The TGI (HL-60(TB) leukemia) was 3.15 µM, the GI50 (HOP-62 NSCLC) was 1570 nM and the TGI (HOP-62 NSCLC) was 12.4 µM. For the same compound, the GI50 (HOP-92 NSCLC) was 3.7 µM, the TGI (HOP-92 NSCLC) was 15.2 µM and the GI50 (HS 578T breast) was 186 nM. The TGI (HS 578T breast) was 10.3 µM, the GI50 (HT29 colon) was 1110 nM and the TGI (HT29 colon) was 25.2 µM. The GI50 (IGROV1 ovarian) was 226 nM, the TGI (IGROV1 ovarian) was 2600 nM and the GI50 (K-562 leukemia) was 255 nM. The TGI (K-562 leukemia) was 10.2 µM, the GI50 (KM12 colon) was 43.2 nM and the TGI (KM12 colon) was 6.45 µM. The GI50 (LOX IMVI melanoma) was 506 nM, the TGI (LOX IMVI melanoma) was 2130 nM and the GI50 (M14 melanoma) was 724 nM. For the same compound, the TGI (M14 melanoma) was 2280 nM, the GI50 (MALME-3M melanoma) was 1330 nM and the TGI (MALME-3M melanoma) was 2720 nM. It also gave a GI50 (MCF7 breast) of 518 nM, a TGI (MCF7 breast) of 2490 nM and a GI50 (MDA-MB-231 breast) of 1070 nM. It also gave a TGI (MDA-MB-231 breast) of 2950 nM, a GI50 (MDA-MB-435) of 2050 nM and a TGI (MDA-MB-435) of 14.5 µM. The GI50 (MOLT-4 leukemia) was 414 nM, the TGI (MOLT-4 leukemia) was 3.62 µM and the GI50 (NCI-H226 lung) was 906 nM. It also gave a TGI (NCI-H226 lung) of 18.9 µM, a GI50 (NCI-H23 lung) of 1250 nM and a TGI (NCI-H23 lung) of 3.64 µM. It also gave a GI50 (NCI-H460 lung) of 1480 nM, a TGI (NCI-H460 lung) of 3.76 µM and a GI50 (NCI-H522 lung) of 1660 nM. The TGI (NCI-H522 lung) was 5.6 µM, the GI50 (NCI/ADR-RES ovarian) was 12.5 µM and the TGI (NCI/ADR-RES ovarian) was 37.2 µM. It also gave a GI50 (OVCAR-3 ovarian) of 1230 nM, a TGI (OVCAR-3 ovarian) of 2830 nM and a GI50 (OVCAR-4 ovarian) of 928 nM. For the same compound, the TGI (OVCAR-4 ovarian) was 3.14 µM, the GI50 (OVCAR-5 ovarian) was 5.21 µM and the TGI (OVCAR-5 ovarian) was 17.6 µM. The GI50 (OVCAR-8 ovarian) was 1180 nM, the TGI (OVCAR-8 ovarian) was 24.6 µM and the GI50 (PC-3 prostate) was 1160 nM. The TGI (PC-3 prostate) was 7.77 µM, the GI50 (RPMI-8226 leukemia) was 1460 nM and the TGI (RPMI-8226 leukemia) was 4.4 µM. For the same compound, the GI50 (RXF 393 renal) was 466 nM, the TGI (RXF 393 renal) was 1820 nM and the GI50 (SF-268 CNS) was 2610 nM. For the same compound, the TGI (SF-268 CNS) was 13.6 µM, the GI50 (SF-295 CNS) was 1250 nM and the TGI (SF-295 CNS) was 3.49 µM. The GI50 (SF-539 CNS) was 473 nM, the TGI (SF-539 CNS) was 1760 nM and the GI50 (SK-MEL-2 melanoma) was 2040 nM. The TGI (SK-MEL-2 melanoma) was 7.04 µM, the GI50 (SK-MEL-28 melanoma) was 3.15 µM and the TGI (SK-MEL-28 melanoma) was 14 µM. It also gave a GI50 (SK-MEL-5 melanoma) of 1350 nM, a TGI (SK-MEL-5 melanoma) of 2770 nM and a GI50 (SK-OV-3 ovarian) of 228 nM. The TGI (SK-OV-3 ovarian) was 1750 nM, the GI50 (SN12C renal) was 410 nM and the TGI (SN12C renal) was 13.1 µM. It also gave a GI50 (SNB-19 CNS) of 2100 nM, a TGI (SNB-19 CNS) of 10 µM and a GI50 (SNB-75 CNS) of 294 nM. It also gave a TGI (SNB-75 CNS) of 8.27 µM, a GI50 (SR leukemia) of 309 nM and a TGI (SR leukemia) of 4.92 µM. It also gave a GI50 (SW-620 colon) of 756 nM, a TGI (SW-620 colon) of 4.35 µM and a GI50 (T-47D breast) of 1820 nM. It also gave a TGI (T-47D breast) of 18.1 µM, a GI50 (TK-10 renal) of 2390 nM and a TGI (TK-10 renal) of 12.4 µM. The GI50 (U251 CNS) was 1090 nM, the TGI (U251 CNS) was 2480 nM and the GI50 (UACC-257 melanoma) was 10.5 µM. It also gave a TGI (UACC-257 melanoma) of 22.8 µM, a GI50 (UACC-62 melanoma) of 4.96 µM and a TGI (UACC-62 melanoma) of 18.6 µM. It also gave a GI50 (UO-31 renal) of 1370 nM and a TGI (UO-31 renal) of 4.46 µM.

— PubChem BioAssay (NCI)
